A value given as a limit tells only on which side of the number the result lay.

The experiment deals with CDK2 (UniProt P24941). Nature of the experiment: Enzyme Assay.
For orientation: IC50 means the concentration needed to halve the response being measured. A higher IC50 goes with weaker potency in that assay. `O=C(Nc1cccc(CO)c1)c1n[nH]cc1NC(=O)c1c(F)cccc1F` had an IC50 of less than 20 µM.
The compound `O=C(NCC1CCOCC1)c1n[nH]cc1NC(=O)c1c(F)cccc1F` yielded a 50% inhibitory concentration (IC50) of less than 20 µM.
The value for `CC(=O)Nc1c(C(=O)Nc2ccc(F)cc2)n[nH]c1C` was less than 20 µM; that for `CC1(C(=O)Nc2c[nH]nc2C(=O)Nc2ccc(F)cc2)CC1` was less than 20 µM.
The value for `CC(CO)Nc1c[nH]nc1C(=O)Nc1ccc(F)cc1` (stereo unspecified) was less than 20 µM; that for `O=C(Nc1c[nH]nc1C(=O)Nc1ccc(F)cc1)c1ccc(F)cc1` was less than 20 µM; that for `NC(=O)c1n[nH]cc1NC(=O)c1c(F)cccc1F` was less than 20 µM.
The value for `Cc1sccc1C(=O)Nc1c[nH]nc1C(=O)Nc1ccc(F)cc1` was less than 20 µM.
In turn, `O=C(Nc1c[nH]nc1C(=O)Nc1ccc(F)cc1)c1ccc2cc[nH]c2c1` showed a 50% inhibitory concentration (IC50) of less than 20 µM.
In turn, `CC(C)(C)C1CCC(NC(=O)c2n[nH]cc2NC(=O)c2c(F)cccc2F)CC1` (stereo unspecified) displayed an IC50 of less than 20 µM.
The value for `CC1(C)CC(NC(=O)c2n[nH]cc2NC(=O)c2c(F)cccc2F)CC(C)(C)N1` was less than 750 µM.
Consider `COc1ccccc1C(=O)Nc1c[nH]nc1C(=O)Nc1ccc(F)cc1`, for which the 50% inhibitory concentration (IC50) is less than 20 µM.
The value for `O=C(Nc1ccccc1)c1n[nH]cc1-c1cccc(CO)c1` was less than 20 µM.
Turning to `Cc1onc(-c2ccccc2)c1C(=O)Nc1c[nH]nc1C(=O)Nc1ccc(F)cc1`, the half-maximal inhibitory concentration (IC50) is less than 20 µM.
The compound `O=C(Nc1ccc(F)cc1)c1n[nH]cc1NC(=O)c1c[nH]c2ccccc12` yielded a half-maximal inhibitory concentration (IC50) of less than 20 µM.
The value for `CN1CCN(c2ccc(CNC(=O)c3n[nH]cc3-c3cccc(O)c3)cc2)CC1` was less than 20 µM; that for `CN1CCN(c2ccc(CNC(=O)c3n[nH]cc3-c3ccccc3)cc2)CC1` was less than 750 µM.
To `O=C(Nc1ccc(F)cc1)c1n[nH]cc1Nc1nccnc1Cl` belongs less than 20 µM; to `NC(=O)c1n[nH]cc1-c1ccccc1`, less than 750 µM.
`O=C(Nc1c[nH]nc1C(=O)Nc1ccc(F)cc1)c1ccccn1`: the 50% inhibitory concentration (IC50) was less than 20 µM.
The value for `O=C(CCN1CCCCC1)Nc1c[nH]nc1C(=O)Nc1ccc(F)cc1` was less than 20 µM; that for `O=C(CO)Nc1c[nH]nc1C(=O)Nc1ccc(F)cc1` was less than 20 µM.
In turn, `CCC(CC)Nc1c[nH]nc1C(=O)Nc1ccc(F)cc1` came in with an IC50 of less than 20 µM.
The value for `Cc1ccc(C(=O)Nc2c[nH]nc2C(=O)Nc2ccc(F)cc2)cc1` was less than 20 µM; that for `COC(=O)c1cccc(NC(=O)c2n[nH]cc2NC(=O)c2c(F)cccc2F)c1N` was less than 20 µM; that for `O=C(NCc1ccccc1Cl)c1n[nH]cc1NC(=O)c1c(F)cccc1F` was less than 20 µM.
To `COc1ccc(NC(=O)c2n[nH]cc2-c2ccccc2)cn1` belongs less than 20 µM; to `CC(=O)N1CCC(C(=O)Nc2c[nH]nc2C(=O)Nc2ccc(F)cc2)CC1`, less than 20 µM; to `O=C(NC1CCN(Cc2ccccc2)C1)c1n[nH]cc1NC(=O)c1c(F)cccc1F` (stereo unspecified), less than 20 µM.
To `O=C(NCc1ccccn1)c1n[nH]cc1NC(=O)c1c(F)cccc1F` belongs less than 20 µM; to `CC1CCCC(C)N1CCNC(=O)c1n[nH]cc1NC(=O)c1c(F)cccc1F` (stereo unspecified), less than 20 µM; to `O=C(CCc1ccc(Cl)cc1)Nc1c[nH]nc1C(=O)Nc1ccc(F)cc1`, less than 20 µM.
The compound `CN(c1c[nH]nc1C(=O)Nc1ccc(F)cc1)C1CCCCC1` had an IC50 of less than 20 µM.
On to `Cc1cccc(C(=O)Nc2c[nH]nc2C(=O)Nc2ccc(F)cc2)c1`, for which the IC50 was less than 20 µM.
To `CN1CCC(Oc2ccc(F)cc2NC(=O)c2n[nH]cc2NC(=O)c2c(F)cccc2F)CC1` belongs less than 20 µM.
The value for `O=C(Nc1ccc(F)cc1)c1n[nH]cc1Nc1ccccn1` was less than 20 µM; that for `Cc1ccccc1C(=O)Nc1c[nH]nc1C(=O)Nc1ccc(F)cc1` was less than 20 µM; that for `CC(C)(C)OC(=O)N1CCCC(CNC(=O)c2n[nH]cc2NC(=O)c2c(F)cccc2F)C1` (stereo unspecified) was less than 20 µM.
To `O=C(NCCN1CCOCC1)c1n[nH]cc1NC(=O)c1c(F)cccc1F` belongs less than 20 µM.
Take `Cc1ccc(C)n1-c1c[nH]nc1C(=O)Nc1ccc(F)cc1`: the 50% inhibitory concentration (IC50) was less than 750 µM.
The value for `O=C(Nc1c[nH]nc1C(=O)Nc1ccc(F)cc1)c1ccc([N+](=O)[O-])cc1` was less than 20 µM; that for `CC(C)Nc1c[nH]nc1C(=O)Nc1ccc(F)cc1` was less than 20 µM; that for `O=C(Nc1ccc(F)cc1)c1n[nH]cc1NC(=O)c1c(O)cccc1F` was less than 20 µM.
The value for `O=C(Nc1cc(F)ccc1OCCN1CCCC1)c1n[nH]cc1NC(=O)c1c(F)cccc1F` was less than 20 µM; that for `O=C(Nc1c[nH]nc1C(=O)Nc1ccc(F)cc1)c1ccc(O)nc1` was less than 20 µM; that for `O=C(Nc1c[nH]nc1C(=O)Nc1ccc(F)cc1)c1cccc([N+](=O)[O-])c1` was less than 20 µM.
Regarding `O=C(NCc1c(F)cccc1F)c1n[nH]cc1NC(=O)c1c(F)cccc1F`, the IC50 is less than 20 µM.
`O=C(NC1CCCC1)c1n[nH]cc1NC(=O)c1c(F)cccc1F`: the IC50 was less than 20 µM.
To `Cn1cc(N)nc1C(=O)Nc1c[nH]nc1C(=O)Nc1ccc(F)cc1` belongs less than 20 µM.
The value for `O=C(Nc1ccc(F)cc1)c1n[nH]cc1N1CCOCC1` was less than 20 µM.
The value for `O=C(NC1CCOCC1)c1n[nH]cc1NC(=O)c1c(F)cccc1F` was less than 20 µM; that for `O=C(Nc1c[nH]nc1C(=O)Nc1ccc(F)cc1)c1ccoc1` was less than 20 µM; that for `O=C(Nc1ccc(F)cc1)c1n[nH]cc1Nc1cnccn1` was less than 20 µM.
Compound `O=C(Nc1ccccc1)c1n[nH]cc1-c1ccccc1` showed an IC50 of less than 20 µM.
The value for `O=C(NC1CCC(C(=O)O)CC1)c1n[nH]cc1NC(=O)c1c(F)cccc1F` (stereo unspecified) was less than 20 µM; that for `O=C(Nc1c[nH]nc1C(=O)Nc1ccc(F)cc1)c1cnc[nH]1` was less than 20 µM; that for `O=C(CCO)Nc1c[nH]nc1C(=O)Nc1ccc(F)cc1` was less than 20 µM.
To `O=C(Nc1c[nH]nc1C(=O)Nc1ccc(F)cc1)c1ccccc1F` belongs less than 20 µM; to `O=C(NCc1ccccc1)c1n[nH]cc1NC(=O)c1c(F)cccc1F`, less than 20 µM.
`O=C(Nc1ccc(F)cc1)c1n[nH]cc1NC(=O)C1(O)CC1`: the IC50 was less than 20 µM.
To `O=C(Nc1ccccn1)c1n[nH]cc1NC(=O)c1c(F)cccc1F` belongs less than 20 µM; to `O=C(NCc1c(Cl)cccc1Cl)c1n[nH]cc1NC(=O)c1c(F)cccc1F`, less than 750 µM; to `COc1cccc(OC)c1C(=O)Nc1c[nH]nc1C(=O)Nc1ccc(F)cc1`, less than 20 µM.
Compound `Cn1cc(CC(=O)Nc2c[nH]nc2C(=O)Nc2ccc(F)cc2)c2ccccc21` returned an IC50 of less than 20 µM.
As to `O=C(Nc1c[nH]nc1C(=O)Nc1ccc(F)cc1)c1ccc(CO)cc1`, the IC50 was less than 20 µM.
The value for `CN1CCN(c2c[nH]nc2C(=O)Nc2ccc(F)cc2)CC1` was less than 20 µM; that for `O=C(Nc1c[nH]nc1C(=O)Nc1ccc(F)cc1)c1cccc(F)c1` was less than 20 µM; that for `O=C(NC1CCN(Cc2ccccc2)CC1)c1n[nH]cc1NC(=O)c1c(F)cccc1F` was less than 20 µM.
To `Cc1nc[nH]c1-c1c[nH]nc1C(=O)Nc1ccc(F)cc1` belongs less than 20 µM; to `CN1CCN(c2ccc(CNC(=O)c3n[nH]cc3-c3ccc(Cl)cc3Cl)cc2)CC1`, less than 750 µM.
In the case of `COc1cccc(C(=O)Nc2c[nH]nc2C(=O)Nc2ccc(F)cc2)c1`, the IC50 is less than 20 µM.

Source of the values: the Kinase Knowledgebase extract (Sharma et al. 2016).
